Assay results taken from article PMC7180456, “Multitarget Anticancer Agents Based on Histone Deacetylase and Protein Kinase CK2 Inhibitors” (Molecules, 2020).
Read-outs that look alike come from different tables or passages of the source.

Columns and labels:
[1] = test system: HL-60/wt cells; assay: Depolarization of mitochondria, JC-1 assay, FACS; type: cell-based, human; conditions: 24 h
[2] = target: T1, human recombinant HDAC1 (Homo sapiens, UniProt Q13547); assay: HDAC1 inhibition, fluorometric method (Enzo Fluorometric Drug Discovery Assay Kit); type: biochemical; conditions: read-out: Inhibitory activity IC50 on HDAC1
T1 construct: purchased Enzo Life Sciences, Inc
T1 sequence (Q13547 whole entry): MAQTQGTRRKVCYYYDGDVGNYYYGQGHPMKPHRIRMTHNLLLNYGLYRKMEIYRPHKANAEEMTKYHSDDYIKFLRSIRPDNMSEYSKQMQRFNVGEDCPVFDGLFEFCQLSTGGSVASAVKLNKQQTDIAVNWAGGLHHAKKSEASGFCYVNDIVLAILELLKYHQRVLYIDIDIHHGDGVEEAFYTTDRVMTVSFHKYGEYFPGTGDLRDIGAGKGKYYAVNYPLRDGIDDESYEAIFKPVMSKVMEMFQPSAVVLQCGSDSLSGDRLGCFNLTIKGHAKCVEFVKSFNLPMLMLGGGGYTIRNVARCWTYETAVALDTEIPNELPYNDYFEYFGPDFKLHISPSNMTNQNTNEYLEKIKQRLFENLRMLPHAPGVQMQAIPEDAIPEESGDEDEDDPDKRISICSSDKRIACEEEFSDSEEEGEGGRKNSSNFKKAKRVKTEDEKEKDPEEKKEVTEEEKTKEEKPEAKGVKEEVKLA
Experimental: The inhibitory activities of the synthesized compounds were determined against CK2 and HDAC1 and the IC50 values are collected in Table 1. The activity towards human recombinant HDAC1 was tested using a fluorometric method. CK2 inhibitory activity was determined by a radiometric method, using a short peptide ([…]) as a substrate.
(§1) 15 µL of HDAC1 (0.4 µg/well) or HDAC6 (0.5 µg/well) were incubated at 37 °C for 30 minutes with 10 µL of inhibitor diluted in 5% DMSO and 25 µL of fluorogenic substrate (0.05 µL/well of 5 mM solution). Reactions were stopped with the developer and trichostatin A, diluted in buffer without BSA, and the plate was incubated at 30 °C for 45 min, followed by measuring the fluorescence (Ex. 360 nm, Em. 450 nm, Fluoroskan, Thermo Scientific).

[3] = test system: HCT-116 colon carcinoma cells; assay: Cytotoxicity, trypan blue exclusion assay, 24 h; conditions: Homo sapiens
Experimental: (§4) Walter Berger, Institute of Cancer Research, Vienna Medical University. Human embryonal kidney cells of HEK293 line were obtained from cell culture collection of R.E. Kavetsky Institute of Experimental Pathology, Oncology and Radiobiology, National Academy of Sciences of Ukraine (Kyiv, Ukraine).
(§5) Cells were seeded (5 × 10^5/mL for leukemia cells and 1 × 10^5/mL for carcinoma cells) into 24-well tissue culture plates (Greiner Bio-one, Frickenhausen, Germany) and were permitted to adhere and grow for 24 h before the experiment. Short-term (24 h) cytotoxic effect of antitumor drugs was studied under the Evolution 300 Trino microscope (Delta Optical, Nowe Osiny, Poland) after cell staining with trypan blue dye (0.1%).
(§6) Final concentration of DMSO in cell culture was 0.5% or less.
(§7) All experiments were performed in triplicate and repeated three times. Statistical analysis of data was conducted in GraphPad Prism 7.0 Software (GraphPad Software, Inc.) using Student’s t test. Statistical significance was set at P ≤ 0.05. Evaluation of LC50 values of each compound was done by built-in functions of GraphPad Prism (non-linear regression, curve fit, [Inhibitor] vs. normalized response - Variable slope).

[4] = test system: leukemia cells of HL-60 line; assay: Cytotoxicity, trypan blue exclusion assay, 24 h; type: cell-based; conditions: Homo sapiens
Excerpt: (§2) Taking into consideration the high abundance of CK2 kinase in leukemia and lymphomas, the ability of selected CK2-HDAC dual inhibitors to circumvent MDR was investigated in human leukemia cells of HL-60 line and its doxorubicin-resistant (HL-60/adr, MRP-1 overexpression) and vincristine-resistant (HL-60/vinc, P-gp overexpression) sublines.
(§3) Statistical significance was set at P ≤ 0.05.

[5] = test system: HL-60/adr (doxorubicin-resistant, MRP-1 overexpression); assay: Cytotoxicity, trypan blue exclusion assay, 24 h; type: cell-based; conditions: Homo sapiens, HL60/ADR
Excerpt: as §2, §3

[6] = test system: HL-60/vinc (vincristine-resistant, P-gp overexpression); assay: Cytotoxicity, trypan blue exclusion assay, 24 h; type: cell-based; conditions: for CC50: Homo sapiens, HL60/vinc
Excerpt: as §2, §3

[7] = test system: breast adenocarcinoma cells of MCF-7 line; assay: Cytotoxicity, trypan blue exclusion assay, 24 h; conditions: Homo sapiens
Experimental: as §4, §5, §6, §7

[8] = test system: human tumor and pseudonormal cell lines; assay: Cytotoxicity, trypan blue assay, range over the cell lines tested; type: cell-based; conditions: 24 h, read-out: LC50 range depending on cell line
Excerpt: as §3

[9] = target: T2, HDAC6 (Homo sapiens, UniProt Q9UBN7); assay: HDAC6 inhibition, fluorometric method (Enzo Fluorometric Drug Discovery Assay Kit); type: biochemical; conditions: read-out: Inhibitory activity IC50 on HDAC6
T2 construct: purchased Enzo Life Sciences, Inc
T2 sequence (Q9UBN7 1-1215): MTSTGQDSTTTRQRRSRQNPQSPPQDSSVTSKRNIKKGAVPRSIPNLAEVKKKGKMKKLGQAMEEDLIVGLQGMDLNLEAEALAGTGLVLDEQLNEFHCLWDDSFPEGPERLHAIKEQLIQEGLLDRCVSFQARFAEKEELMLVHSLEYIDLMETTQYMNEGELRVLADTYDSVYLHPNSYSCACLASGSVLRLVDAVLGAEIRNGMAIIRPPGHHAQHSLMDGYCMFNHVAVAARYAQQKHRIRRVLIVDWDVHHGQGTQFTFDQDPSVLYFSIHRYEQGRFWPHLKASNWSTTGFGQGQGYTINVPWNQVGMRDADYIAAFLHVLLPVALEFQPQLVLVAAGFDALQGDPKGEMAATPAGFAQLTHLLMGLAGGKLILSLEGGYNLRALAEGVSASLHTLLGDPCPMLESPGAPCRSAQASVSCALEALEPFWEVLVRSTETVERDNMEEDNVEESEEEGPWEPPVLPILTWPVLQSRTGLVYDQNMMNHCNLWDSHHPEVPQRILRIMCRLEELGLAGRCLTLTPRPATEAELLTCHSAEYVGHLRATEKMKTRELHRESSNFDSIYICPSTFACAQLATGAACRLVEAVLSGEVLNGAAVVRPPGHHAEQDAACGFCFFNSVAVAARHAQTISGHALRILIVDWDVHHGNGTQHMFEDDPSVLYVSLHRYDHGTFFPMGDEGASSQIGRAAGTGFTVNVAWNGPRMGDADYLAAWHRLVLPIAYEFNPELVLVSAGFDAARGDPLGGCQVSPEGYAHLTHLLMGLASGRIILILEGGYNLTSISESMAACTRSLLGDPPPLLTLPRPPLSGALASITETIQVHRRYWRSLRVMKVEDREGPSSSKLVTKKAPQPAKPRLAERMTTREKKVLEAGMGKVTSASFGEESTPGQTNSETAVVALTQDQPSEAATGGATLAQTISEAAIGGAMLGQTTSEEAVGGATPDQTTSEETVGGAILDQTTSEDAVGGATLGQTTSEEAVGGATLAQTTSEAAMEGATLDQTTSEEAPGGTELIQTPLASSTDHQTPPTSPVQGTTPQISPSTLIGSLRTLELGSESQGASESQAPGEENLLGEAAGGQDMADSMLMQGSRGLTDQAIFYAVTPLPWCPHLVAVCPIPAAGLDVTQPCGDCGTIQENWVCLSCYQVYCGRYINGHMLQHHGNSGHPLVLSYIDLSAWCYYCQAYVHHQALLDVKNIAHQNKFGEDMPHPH
Experimental: For this reason, we analyzed the activity of 15 and 19, together with other compounds from the alkyl and triazole series in HDAC6, tested using a fluorometric method (Table 1).
as §1

[10] = test system: Jurkat T-leukemia cells; assay: Cytotoxicity, trypan blue exclusion assay, 24 h; conditions: Homo sapiens
Experimental: as §4, §5, §6, §7

[11] = Cytotoxicity, trypan blue exclusion assay, 24 h (pseudonormal cells); conditions: human, HEK293 embryonic kidney cells (pseudonormal)
Experimental: as §4, §5, §6, §7

[12] = target: T3, human recombinant CK2α (Homo sapiens, UniProt P68400); assay: CK2 inhibition, radiometric method with peptide substrate […]; type: biochemical; conditions: for IC50: radiometric method, 20 µM ATP, read-out: Inhibitory activity IC50 on CK2
T3 construct: GST; made in house; host or cells: bacteria
T3 sequence (P68400 whole entry): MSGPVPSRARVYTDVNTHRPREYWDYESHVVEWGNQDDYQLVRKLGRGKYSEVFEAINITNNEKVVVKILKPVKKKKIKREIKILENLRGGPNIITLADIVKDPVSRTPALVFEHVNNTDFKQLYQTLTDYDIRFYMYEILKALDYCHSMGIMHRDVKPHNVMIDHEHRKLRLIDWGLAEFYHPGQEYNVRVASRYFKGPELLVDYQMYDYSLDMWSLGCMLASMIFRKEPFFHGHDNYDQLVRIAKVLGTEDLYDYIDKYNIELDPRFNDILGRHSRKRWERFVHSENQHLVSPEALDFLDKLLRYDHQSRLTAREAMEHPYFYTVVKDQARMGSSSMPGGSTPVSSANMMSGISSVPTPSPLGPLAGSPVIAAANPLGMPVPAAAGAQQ
Experimental: The activity towards human recombinant HDAC1 was tested using a fluorometric method. CK2 inhibitory activity was determined by a radiometric method, using a short peptide ([…]) as a substrate.
Recombinant human protein kinase GST-CK2 was produced in bacteria and purified as described elsewhere. […] The reaction buffer contained 20 µM [γ-32P] ATP (specific radioactivity 300–1000 cpm/pmol), 15 mM Mg^2+, 20 mM Tris–HCl pH 7.5, and 6 mM 2-mercaptoethanol. 10 µL of the assay mixture was spotted onto a square (1 cm/1 cm) of Whatman P81 paper and allowed to dry. Each square was immersed in cold 0.5% phosphoric acid, and washed three times during 10 min, allowed to dry and transferred into a vessel containing Opti-Phase liquid (scintillation solution) and radioactivity was quantified using a scintillation counter (MicroBeta, Perkin Elmer) by Cerenkov counting. All experiments were performed in triplicate. IC50 values were calculated using GraphPad Prism (version 4.0) software.

[13] = test system: CK2; conditions: Figure 1; read-out: IC50 of representative CK2 inhibitors; cited from earlier work
[14] = HCT-116, 24 h, read-out: LC50 Values of Compounds for Cell Line, HCT-116
[15] = HCT-116, read-out: LC50 values of compounds for cell line, HCT-116
[16] = Table 2, trypan blue, 24 h, M ± SD, read-out: LC50 Values of Compounds for Cell Line, HL-60
[17] = supplement Table 4S, M±SD, read-out: LC50 values of compounds for cell line, HL-60
[18] = Table 2, trypan blue, 24 h, M ± SD, read-out: LC50 Values of Compounds for Cell Line, HL-60/adr
[19] = supplement Table 4S, M±SD, read-out: LC50 values of compounds for cell line, HL-60/adr
[20] = Table 2, trypan blue, 24 h, M ± SD, read-out: LC50 Values of Compounds for Cell Line, HL-60/vinc
[21] = supplement Table 4S, M±SD, read-out: LC50 values of compounds for cell line, HL-60/vinc
[22] = MCF7, 24 h, read-out: LC50 Values of Compounds for Cell Line, MCF-7
[23] = MCF7, read-out: LC50 values of compounds for cell line, MCF-7
[24] = 24 h, read-out: LC50 Values of Compounds for Cell Line, Jurkat
[25] = read-out: LC50 values of compounds for cell line, Jurkat
[26] = LC50 Values of Compounds for Cell Line, HEK293, Table 2, trypan blue, 24 h, M ± SD
[27] = LC50 values of compounds for cell line, HEK293, supplement Table 4S, M±SD

Question: What does the source list for `CN(C)c1nc2c(Br)c(Br)c(Br)c(Br)c2n1CCCCCC(=O)NO` [Compound 11b, N-Hydroxy-6-(4,5,6,7-tetrabromo-2-(dimethylamino)-1H-benzo[d]imidazol-1-yl)hexanamide]?
Answer: depolarization of mitochondria ([1]; 10 µM): 14.55%; depolarization of mitochondria ([1]; 30 µM): 34.06%; IC50 [2]: 1.46 µM; CC50 [3, 14]: 4.22 ± 0.46 µM; CC50 [3, 15]: 1.9 µM; CC50 [4, 16]: 7.67 ± 1.17 µM; CC50 [4, 17]: 6.59 µM; CC50 [5, 18]: 16.2 ± 1.68 µM; CC50 [5, 19]: 10.6 µM; CC50 [6, 20]: 16.8 ± 3.34 µM; CC50 [6, 21]: 12.7 µM; CC50 [7, 22]: 15.7 ± 2.54 µM; CC50 [7, 23]: 9.97 µM; CC50 [8]: 4 to 23 µM; IC50 [9]: 0.66 µM; CC50 [10, 24]: 10.2 ± 1.43 µM; CC50 [10, 25]: 10 µM; CC50 at 24 h [11, 26]: 23.3 ± 4.38 µM; CC50 at 24 h [11, 27]: 13.6 µM

Question: Which depolarization of mitochondria ([1]; 10 µM) does the source give for `CN(C)c1nc2c(Br)c(Br)c(Br)c(Br)c2n1CCCCCCC(=O)NO` [Compound 11c, N-Hydroxy-7-(4,5,6,7-tetrabromo-2-(dimethylamino)-1H-benzo[d]imidazol-1-yl)heptanamide] here?
Answer: 34.73%

Question: What about the depolarization of mitochondria ([1]; 30 µM) of the same molecule?
Answer: 49.98%

Question: And the IC50 [2]?
Answer: 1.77 µM

Question: What about the CC50 [3, 14] of the same molecule?
Answer: 1.9 ± 0.24 µM

Question: And the CC50 [3, 15]?
Answer: 3.1 µM

Question: What about the “fold difference in the CK2 inhibitory activity compared to 11b” value ([12]; compared to 11b) of the same molecule?
Answer: 4.5 fold

Question: What about the IC50 [12] of the same molecule?
Answer: 16.6 µM

Question: And the CC50 [4, 16]?
Answer: 6.59 ± 0.96 µM

Question: And the CC50 [4, 17]?
Answer: 4.69 µM

Question: And the CC50 [5, 18]?
Answer: 10.6 ± 1.53 µM

Question: What about the CC50 [5, 19] of the same molecule?
Answer: 8.4 µM

Question: And the CC50 [6, 20]?
Answer: 12.1 ± 3.27 µM

Question: What about the CC50 [6, 21] of the same molecule?
Answer: 2.49 µM

Question: And the CC50 [7, 22]?
Answer: 9.97 ± 0.99 µM

Question: And the CC50 [7, 23]?
Answer: 9.02 µM

Question: What about the CC50 [8] of the same molecule?
Answer: 1.9 to 13.6 µM

Question: What about the IC50 [9] of the same molecule?
Answer: 1.13 µM

Question: And the CC50 [10, 24]?
Answer: 9.47 ± 1.1 µM

Question: What about the CC50 [10, 25] of the same molecule?
Answer: 5.63 µM

Question: And the CC50 at 24 h [11, 26]?
Answer: 13.6 ± 0.8 µM

Question: What about the CC50 at 24 h [11, 27] of the same molecule?
Answer: 8.41 µM

Question: Which results are given for `CN(C)c1nc2c(Br)c(Br)c(Br)c(Br)c2n1CCCCCCCC(=O)NO` [Compound 11d, N-Hydroxy-8-(4,5,6,7-tetrabromo-2-(dimethylamino)-1H-benzo[d]imidazol-1-yl)octanamide]?
Answer: level of depolarized mitochondria ([1]; dose not stated in the sentence (10 µM and 30 µM tested)): 53.23%; IC50 [2]: 13.7 µM; CC50 [3, 14]: 3.1 ± 0.37 µM; CC50 [3, 15]: 16.9 µM; CC50 [4, 16]: 4.69 ± 0.54 µM; CC50 [4, 17]: 29.7 µM; CC50 [5, 18]: 8.4 ± 1.21 µM; CC50 [5, 19]: 15.1 µM; change of activity towards P-gp overexpressing HL-60/vinc cells versus HL-60/wt ([6]; 24 h): increased twofold; CC50 [6, 20]: 2.32 ± 1.06 µM; CC50 [6, 21]: > 30 µM; CC50 [7, 22]: 9.02 ± 0.9 µM; CC50 [7, 23]: 27.8 µM; CC50 [8]: 3 to 8 µM; IC50 [9]: 8.98 µM; CC50 [10, 24]: 5.3 ± 0.75 µM; CC50 [10, 25]: 14.2 µM; CC50 at 24 h [11, 26]: 8.41 ± 1.26 µM; CC50 at 24 h [11, 27]: > 30 µM

Question: Which results are given for `O=C(NO)c1ccc(Cn2nnc3c(Br)c(Br)c(Br)c(Br)c32)cc1` [Compound 15b, N-Hydroxy-4-((tetrabromo-1H-benzo[d][1,2,3]triazol-1-yl)methyl)benzamide]?
Answer: IC50 [2]: 4.22 µM; IC50 [12]: 136 µM; IC50 [9]: 2.7 µM

Question: For `O=c1oc2c(O)c(O)cc3c(=O)oc4c(O)c(O)cc1c4c23` [Ellagic acid], which IC50 [13] is on record?
Answer: 0.04 µM

Question: Which IC50 [13] does the source give for `O=c1c(O)c(-c2ccc(O)c(O)c2)oc2cc(O)ccc12` [Fisetin] here?
Answer: 0.35 µM
